Data as given in patent publication US10640495B2, “Heterocycle derivatives having TrkA inhibitory activity” (Shionogi & Co., Ltd., priority 2015, dated 2020).

Each compound was assayed against human TrkA (Homo sapiens (Human), UniProt P04629) (assay: Human TrkA inhibition assay (Test Example 2)). Settings: Table 152, human TrkA inhibition; read-out: IC50_nM.
Assay type: biochemical
Method in brief: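 Recombinant TrkA (1 nmol/L) was preincubated 15 min at room temperature with compound in HEPES/MgCl2/DTT buffer, then reacted with FL-peptide 27 (1.5 μmol/L) and ATP (500 μmol/L) for 120 min at 37 °C. After EDTA stop, substrate phosphorylation was read by microfluidic mobility shift. IC50 came from logistic regression over 3-fold dilution series.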

Chain of human TrkA (P04629 440-796): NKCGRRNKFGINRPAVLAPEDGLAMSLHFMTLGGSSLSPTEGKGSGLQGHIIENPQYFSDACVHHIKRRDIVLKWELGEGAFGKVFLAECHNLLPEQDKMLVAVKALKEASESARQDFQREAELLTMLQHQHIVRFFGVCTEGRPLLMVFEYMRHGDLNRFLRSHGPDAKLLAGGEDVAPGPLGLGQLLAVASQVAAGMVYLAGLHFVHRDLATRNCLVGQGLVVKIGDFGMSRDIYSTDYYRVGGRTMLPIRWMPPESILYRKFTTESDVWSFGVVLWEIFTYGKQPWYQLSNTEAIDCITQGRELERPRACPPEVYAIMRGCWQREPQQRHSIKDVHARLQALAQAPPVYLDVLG

| SMILES | IC50 [nM] |
| --- | --- |
| COCCC1C[C@@H](NC(=O)Nc2c(C)c(-c3cnn(C)c3)nn2-c2ccccc2)[C@H](c2ccccc2)O1 (stereo partly drawn) [Compound I-16] | < 100 |
| COCCC1C[C@@H](NC(=O)Nc2c(C)c(-c3ccc4c(cnn4C)c3)nn2-c2ccccc2)[C@H](c2ccccc2)O1 (stereo partly drawn) [Compound I-11] | < 100 |

Same assay, conditions: Table 153, human TrkA inhibition; read-out: IC50

| SMILES | IC50 [nM] |
| --- | --- |
| CCN1CCC(NC(=O)c2cc(-c3nn(-c4ccccc4)c(NC(=O)N[C@@H]4CN(CCOC)O[C@H]4c4ccc(F)c(F)c4)c3C)ccn2)CC1 (racemic) [Compound I-62] | < 100 |
| COCCN1C[C@@H](NC(=O)Nc2c(C)c(-c3cnc4c(c3)nc(CO)n4C)nn2-c2ccccc2)[C@H](c2ccc(F)c(F)c2)O1 (racemic) [Compound I-78] | < 100 |
| COCCN1C[C@@H](NC(=O)Nc2c(C)c(-c3cnc(C)nc3)nn2-c2ccccc2)[C@H](c2ccc(F)cc2)O1 (racemic) [Compound I-117] | < 100 |
| COCCN1C[C@@H](NC(=O)Nc2c(C)c(-c3cncc(N=S(C)(C)=O)c3)nn2-c2ccccc2)[C@H](c2ccc(F)c(F)c2)O1 (racemic) [Compound I-85] | < 100 |
| COCCN1C[C@@H](NC(=O)Nc2cc(-c3cnc(OC)c(C(=O)NC4CCOCC4)c3)nn2C)[C@H](c2ccnc(F)c2)O1 (racemic) [Compound I-94] | > 1000 |
| COCCN1C[C@@H](NC(=O)Nc2c(C)c(-c3cnc(C(=O)NCC4CC4)c(C)c3)nn2-c2ccccc2)[C@H](c2ccnc(F)c2)O1 (racemic) [Compound I-170] | < 100 |
| COCCN1C[C@@H](NC(=O)Nc2c(C)c(-c3cnc(OC)c(C(=O)N[C@@H]4CCOC4)c3)nn2-c2ccccc2)[C@H](c2ccnc(F)c2)O1 [Compound I-113] | < 100 |
| CNC(=O)c1cc(-c2nn(-c3ccccc3)c(NC(=O)N[C@@H]3CN(CCOC)O[C@H]3c3cccc(F)c3)c2C)cn(C)c1=O (racemic) [Compound I-143] | < 100 |

Same assay, conditions: Table 154, human TrkA inhibition; read-out: IC50

| SMILES | IC50 [nM] |
| --- | --- |
| COCCN1C[C@@H](NC(=O)Nc2c(C)c(-c3cnc4c(c3)c(C(F)(F)F)nn4C)nn2-c2ccccc2)[C@H](c2ccnc(F)c2)O1 (racemic) [Compound I-264] | < 100 |
| COCCN1C[C@@H](NC(=O)Nc2c(C)c(-c3ccc(C(=O)OC)nc3)nn2-c2ccccc2)[C@H](c2ccc(F)c(F)c2)O1 (racemic) [Compound I-199] | < 100 |
| COCCN1C[C@@H](NC(=O)Nc2c(C)c(-c3cnc(OC)c(C(=O)NOCCF)c3)nn2-c2ccccc2)[C@H](c2ccnc(F)c2)O1 (racemic) [Compound I-261] | < 100 |
| COCCN1C[C@@H](NC(=O)Nc2c(C)c(-c3cnc(N4CCC4)nc3)nn2-c2ccccc2)[C@H](c2ccnc(F)c2)O1 (racemic) [Compound I-266] | < 100 |
| COCCN1C[C@@H](NC(=O)Nc2c(C)c(-c3cnc(OC)c(C(C)(C)O)c3)nn2-c2ccccc2)[C@H](c2ccnc(F)c2)O1 (racemic) [Compound I-308] | < 100 |
| COCCN1C[C@@H](NC(=O)Nc2c(C)c(-c3ccnc(C(=O)O)c3)nn2-c2ccccc2)[C@H](c2cnc(F)c(F)c2)O1 [Compound I-213] | < 100 |
| CNC(=O)c1ncc(-c2nn(-c3ccccc3)c(NC(=O)N[C@@H]3CN(CCOC)O[C@H]3c3ccc(F)c(F)c3)c2C)cc1F [Compound I-314] | < 100 |
| COCCN1C[C@@H](NC(=O)Nc2c(C)c(-c3ccc(N=S(C)(C)=O)cc3)nn2-c2ccccc2)[C@H](c2ccc(F)c(F)c2)O1 [Compound I-227] | < 100 |
| COCCN1C[C@@H](NC(=O)Nc2c(C)c(-c3ccc4nnc(C)n4c3)nn2-c2ccccc2)[C@H](c2ccc(F)cc2)O1 (racemic) [Compound I-267] | < 100 |
| COCCN1C[C@@H](NC(=O)Nc2c(C)c(-c3cnc4c(c3)COC4=O)nn2-c2ccccc2)[C@H](c2ccnc(F)c2)O1 (racemic) [Compound I-259] | < 100 |
| COCCN1C[C@@H](NC(=O)Nc2c(C)c(-c3ccn4c(C)nnc4c3)nn2-c2ccccc2)[C@H](c2ccc(F)cc2)O1 (racemic) [Compound I-284] | < 100 |

Same assay, conditions: Table 155, human TrkA inhibition; read-out: IC50

| SMILES | IC50 [nM] |
| --- | --- |
| COCCN1C[C@@H](NC(=O)Nc2c(C)c(OCc3cccnc3)nn2-c2ccccc2)[C@H](c2ccnc(F)c2)O1 (racemic) [Compound I-455] | < 100 |
| COCCN1C[C@@H](NC(=O)Nc2c(C)c(-c3cnc(C4CCOCC4)nc3)nn2-c2ccccc2)[C@H](c2ccnc(F)c2)O1 (racemic) [Compound I-513] | < 100 |
| COCCN1C[C@@H](NC(=O)Nc2c(C)c(-c3cnc(N4CC5(CCC5)C4)nc3)nn2-c2ccccc2)[C@H](c2ccnc(F)c2)O1 (racemic) [Compound I-485] | < 100 |
| COCCN1C[C@@H](NC(=O)Nc2c(C)c(-c3cnc(N4CCN(C(=O)OCc5ccccc5)CC4)nc3)nn2-c2ccccc2)[C@H](c2cc(F)nc(F)c2)O1 (racemic) [Compound I-370] | < 100 |
| COCCN1C[C@@H](NC(=O)Nc2c(C)c(-c3cnc4c(cnn4C)n3)nn2-c2ccccc2)[C@H](c2ccnc(F)c2)O1 (racemic) [Compound I-432] | < 100 |
| COCCN1C[C@@H](NC(=O)Nc2c(C)c(-c3ccn(C)c(=O)c3)nn2-c2ccccc2)[C@H](c2ccnc(F)c2)O1 (racemic) [Compound I-495] | < 100 |
| COCCN1C[C@@H](NC(=O)Nc2c(C)c(-c3cnc(N4CCN(C)C(=O)C4)nc3)nn2-c2ccccc2)[C@H](c2ccnc(F)c2)O1 (racemic) [Compound I-488] | < 100 |
| COCCN1C[C@@H](NC(=O)Nc2c(C)c(-c3cnc4nn(C(F)F)cc4c3)nn2-c2ccccc2)[C@H](c2ccnc(F)c2)O1 (racemic) [Compound I-331] | < 100 |
| COCCN1C[C@@H](NC(=O)Nc2c(C)c(-c3cnc(OC(F)F)nc3)nn2-c2ccccc2)[C@H](c2ccnc(F)c2)O1 (racemic) [Compound I-328] | < 100 |
| COCCN1C[C@@H](NC(=O)Nc2c(C)c(-c3cnc4c(c3)OCCO4)nn2-c2ccccc2)[C@H](c2cnc(F)c(F)c2)O1 (racemic) [Compound I-462] | < 100 |
| COCCN1C[C@@H](NC(=O)Nc2c(C)c(-c3cnc(N4C[C@H]5C[C@@H](C4)O5)nc3)nn2-c2ccccc2)[C@H](c2ccnc(F)c2)O1 (racemic) [Compound I-487] | < 100 |
| COCCN1C[C@@H](NC(=O)Nc2c(C)c(-c3cnc(N4CC5(CCOCC5)C4)nc3)nn2-c2ccccc2)[C@H](c2ccnc(F)c2)O1 (racemic) [Compound I-408] | < 100 |

Same assay, conditions: Table 156, human TrkA inhibition; read-out: IC50

| SMILES | IC50 [nM] |
| --- | --- |
| COCCN1C[C@@H](NC(=O)Nc2c(C)c(-c3cnnc(OC)c3)nn2-c2ccccc2)[C@H](c2ccnc(F)c2)O1 (racemic) [Compound I-515] | < 100 |
| COCCN1C[C@@H](NC(=O)Nc2c(C)c(-c3cnc(NCC(F)(F)F)nc3)nn2-c2ccccc2)[C@H](c2ccnc(F)c2)O1 (racemic) [Compound I-524] | < 100 |
| CCN1C[C@@H](NC(=O)Nc2c(C)c(OCC3CCN(C(C)=O)CC3)nn2-c2ccccc2)[C@H](c2ccc(F)cc2)O1 (racemic) [Compound I-566] | < 100 |
| COCCN1C[C@@H](NC(=O)Nc2c(C)c(-c3cnc4occc4c3)nn2-c2ccccc2)[C@H](c2ccnc(F)c2)O1 (racemic) [Compound I-517] | < 100 |
| CCN1C[C@@H](NC(=O)Nc2c(C)c(OCC3CCN(C(C)=O)CC3)nn2-c2ccccc2)[C@H](c2ccc(F)c(F)c2)O1 (racemic) [Compound I-563] | < 100 |
| CC(=O)N1CCC(COc2nn(-c3ccccc3)c(NC(=O)N[C@@H]3CN(CC(F)F)O[C@H]3c3ccc(F)c(F)c3)c2C)CC1 (racemic) [Compound I-565] | < 100 |
| COCCN1C[C@@H](NC(=O)Nc2c(C)c(C)nn2-c2ccccc2)[C@H](c2ccnc(F)c2)O1 (racemic) [Compound I-522] | < 100 |
| CNC(=O)c1cc(-c2nn(-c3ccccc3)c(NC(=O)N[C@@H]3CN(CC(F)(F)F)O[C@H]3c3ccc(F)c(F)c3)c2C)cnc1OC (racemic) [Compound I-571] | < 100 |

Same assay, conditions: Table 157, human TrkA inhibition; read-out: IC50

| SMILES | IC50 [nM] |
| --- | --- |
| COCCN1C[C@@H](NC(=O)Nc2c(C)c(-c3cnc(N4CC(N(C)C)C4)nc3)nn2-c2ccccc2)[C@H](c2ccnc(F)c2)O1 (racemic) [Compound I-582] | < 100 |
| COCCN1C[C@@H](NC(=O)Nc2c(C)c(-c3cnc(N4C[C@@H]5C[C@H]4CO5)nc3)nn2-c2ccccc2)[C@H](c2ccnc(F)c2)O1 [Compound I-591] | < 100 |

Same assay, conditions: human TrkA 1 nmol/L, ATP 500 μmol/L, 120 min at 37° C.; read-out: IC50 values (TrkA phosphorylation inhibition)

| SMILES | IC50 [nM] |
| --- | --- |
| COCCN1C[C@@H](NC(=O)Nc2c(C)c(-c3ccc(OC)nc3)nn2-c2ccccc2)[C@H](c2ccnc(F)c2)O1 [Compound I-509] | 1.3 |
| COCCN1C[C@@H](NC(=O)Nc2c(C)c(-c3cnc(N=S(C)(C)=O)nc3)nn2-c2ccccc2)[C@H](c2ccc(F)c(F)c2)O1 [Compound I-268] | 0.55 |
| COCCN1C[C@@H](NC(=O)Nc2c(C)c(-c3cnc(C(N)=O)c(C)c3)nn2-c2ccccc2)[C@H](c2ccnc(F)c2)O1 (racemic) [Compound I-165] | 5.3 |
| CNC(=O)c1ncc(-c2nn(-c3ccccc3)c(NC(=O)N[C@@H]3CN(CCOC)O[C@H]3c3ccnc(F)c3)c2C)cc1C [Compound I-325] | 2.5 |
| COCC[C@@H]1C[C@@H](NC(=O)Nc2c(C)c(-c3cnc(C)nc3)nn2-c2ccccc2)[C@H](c2ccc(F)c(F)c2)O1 (racemic) [Compound I-28] | 2.5 |
| COCCN1C[C@@H](NC(=O)Nc2c(C)c(-c3cnc4c(c3)CC(=O)N4C)nn2-c2ccccc2)[C@H](c2cnc(F)c(F)c2)O1 (racemic) [Compound I-303] | 1.5 |
| CNC(=O)c1cc(-c2nn(-c3ccccc3)c(NC(=O)N[C@@H]3C[C@@H](CCOC)O[C@H]3c3ccnc(F)c3)c2C)cnc1OC [Compound I-319] | 1.2 |
| COCCN1C[C@@H](NC(=O)Nc2c(C)c(-c3ccc(N=S(C)(C)=O)nc3)nn2-c2ccccc2)[C@H](c2ccc(F)c(F)c2)O1 (racemic) [Compound I-66] | 1.6 |
